Measured values published in the Biogen ADME set (Fang et al. 2023).
In brackets after ≈: the same amount, converted by molar mass.

Settings: for aqueous solubility: pH 6.8

Compound | MDR1-MDCK efflux ratio | fraction unbound, human plasma | fraction unbound, rat plasma | aqueous solubility | intrinsic clearance, human liver microsomes | intrinsic clearance, rat liver microsomes
CC1(C)Cc2cc(NC(=O)c3cnn4cccnc34)c(OCC3CC3)nc2O1 | 0.316 | 0.00631 | 0.0241 | 0.7 µg/mL (≈ 1.84 µM) |  | 
CCOc1ncccc1-c1cc(Cl)ccc1O | 0.595 |  |  | 22.7 µg/mL (≈ 90.9 µM) | 59.9 mL/min/kg | 654 mL/min/kg
Cc1ccc(C(=O)Nc2cccc(C(=O)N(C)C)c2)cn1 | 23.2 |  |  | 45.3 µg/mL (≈ 160 µM) | ≤ 4.74 mL/min/kg | ≤ 10.7 mL/min/kg
O=c1c2cccnc2ncn1Cc1ccc2c(c1)CCCC2 | 0.68 |  |  |  | 25.8 mL/min/kg | 711 mL/min/kg
O=C(COc1ccc2oc3c(c2c1)CCCC3)N1CCOCC1 |  |  |  | 43 µg/mL (≈ 136 µM) | 31 mL/min/kg | 2980 mL/min/kg
Cc1ccc(C(=O)NCCc2ccc(F)cc2)o1 | 0.511 |  |  |  | 22 mL/min/kg | 140 mL/min/kg
Cc1nccc(-c2cccc(NCC(=O)N(C)c3ccccc3)c2)n1 | 0.964 |  |  | 38.2 µg/mL (≈ 115 µM) | 22 mL/min/kg | 401 mL/min/kg
c1cnc(N2CC(c3nc4ccccc4[nH]3)C2)nc1 | 3.96 |  |  | 35 µg/mL (≈ 139 µM) | 10.1 mL/min/kg | 33.5 mL/min/kg
Cc1ncccc1CNc1nnc(C(C)(C)C)s1 | 1.28 |  |  | 40.9 µg/mL (≈ 156 µM) | ≤ 4.74 mL/min/kg | 19.3 mL/min/kg
O=C1NCC2(C/C=C/CCOc3ccccc31)CCN(C(=O)c1ccc3[nH]nnc3c1)CC2 | 45.8 |  |  | 24.4 µg/mL (≈ 54.9 µM) | 42.8 mL/min/kg | 165 mL/min/kg
O=C1NC(c2ccccc2)=N/C1=C/c1ccc2c(c1)OCO2 |  |  |  | 0.31 µg/mL (≈ 1.06 µM) |  | 
Cn1nc(N)c2ccc(Br)cc21 | 0.72 |  |  |  | 24 mL/min/kg | 94.8 mL/min/kg
O=C(NC1CCNCC1)c1ccc2[nH]ncc2c1 | 0.239 | 0.696 | 0.845 |  | 25.9 mL/min/kg | 
c1ccc(-c2n[nH]c(C3CCN(c4ccccn4)CC3)n2)cc1 | 0.974 |  |  | 34.4 µg/mL (≈ 113 µM) | 15.8 mL/min/kg | 440 mL/min/kg
Cc1noc(OCC(=O)N2CCCCCC2)n1 | 1.01 |  |  | 50.2 µg/mL (≈ 210 µM) | ≤ 4.74 mL/min/kg | ≤ 10.7 mL/min/kg
Nc1c(-c2ccc(F)cc2)ncn1Cc1ccccc1 |  |  |  |  | 14.6 mL/min/kg | 372 mL/min/kg
CCN(Cc1ccncc1)[C@@H]1CN(C(=O)c2ccccc2)C[C@H]1O | 37.3 |  |  | 115 µg/mL (≈ 354 µM) | 45.2 mL/min/kg | 361 mL/min/kg
CN(C(=O)C1CCN(c2ncccn2)CC1)C1CCCCCCC1 | 0.85 |  |  | 49.4 µg/mL (≈ 150 µM) | 519 mL/min/kg | 3890 mL/min/kg
Clc1cccc(Cl)c1Cc1n[nH]c(CCCn2cccn2)n1 | 13.3 |  |  |  | 99.9 mL/min/kg | 581 mL/min/kg
Cc1noc(C)c1CSC(=N)N1CCOCC1 | 1.21 |  |  |  | ≤ 4.74 mL/min/kg | ≤ 10.7 mL/min/kg
Cn1ccc2c(C(=O)Nc3ncn(Cc4cccnc4)n3)cccc21 | 54.9 |  |  | 42.5 µg/mL (≈ 128 µM) | ≤ 4.74 mL/min/kg | 30.9 mL/min/kg
CC(=O)Nc1ccc(C(=O)N2CCCCC2c2nc(N)ncc2-c2ccc(Cl)cc2)cc1 (centres undefined) | 106 | 0.0395 | 0.0355 | 57.8 µg/mL (≈ 128 µM) | 40.7 mL/min/kg | 643 mL/min/kg
